{
  "source": "patent US7148250B2",
  "about": "“Indoles as NAALADase inhibitors” (Guilford Pharmaceuticals Inc., priority 2001, dated 2006)",
  "key": {"STZ-diabetic rats [1]": {"test_system": "STZ-diabetic rats", "assay": "Neuropathic pain in STZ model (thermal withdrawal latency)", "format": "in vivo, rat", "settings": "10 mg/kg i.p. daily, treatment from 45 days post STZ", "protocol": "Male Sprague-Dawley rats (200–225 g) were rendered diabetic by intravenous administration of streptozotocin (“STZ”, 70 mg/kg in phosphate buffered saline). Diabetic animals were divided into five groups: one group receiving Compound A (10 mg/kg or 1 mg/kg), Compound D (10 mg/kg or 1 mg/kg) or vehicle. Another group of animals (non-STZ treated) served as non-diabetic controls. Drug/vehicle treatment was started in diabetic animals 45 days post-STZ administration. STZ-induced diabetic rats were tested for sensitivity to a heat source as soon as blood glucose levels rose to 320 mg/dl or above (30 days post STZ). The rats were then acclimated to a Hargreaves apparatus and thermal nociception was monitored using an infrared heat source directed into the dorsal surface of the hindpaw, and the time taken for the animal to remove its paw noted to the nearest 0.1 seconds (see Hargreaves et al., supra, for detailed experimental method). The intensity of the beam source was adjusted such that the mean latency for control animals (non-STZ treated) was approximately 10 seconds. Each animal was tested 8 times and the mean difference score (between mean non-diabetic control latency and mean diabetic latency) are graphically presented in FIGS. 7A and 7B."}, "BB/W diabetic rats": {"test_system": "BB/W diabetic rats", "assay": "Progression of neuropathic pain and nerve conduction deficits in BB/W model", "format": "in vivo, rat", "description": "Male BB/W rats (BRI, Mass) spontaneously develop a cell mediated autoimmune destruction of pancreatic B cells, resulting in onset of insulin-dependent (Type I) diabetes (Guberski 1994). […] This renders them valuable for experimental trials of new compounds for future treatments of this major disorder. In the present study, Compound D and Compound A were examined for their ability to alter the progression of diabetic neuropathy. The rats received daily injection of Compound D or Compound A (10 mg/kg i.p.) or vehicle, starting at the onset of diabetes (hyperglycemia) and up to 6 months thereafter. Another group of non-diabetic rats also receiving vehicle were tested. All animals were continuously monitored for body weight, urine volume, blood sugar and glycated haemoglobin. In the first month of the study, all animals were tested for thermal nociception in a Hargreaves apparatus, weekly. After the first month this was done biweekly and then monthly. The testing consists of directing an infrared heat source onto the dorsal surface of the rat hindpaw and noting the time taken for the animal to remove its paw (see Hargreaves et al., supra, for a description of the experimental method). Each animal was tested 8 times and the mean withdrawal latency noted.\nNerve conduction velocity was also measured every two weeks through the first eight weeks of treatment and every month thereafter through to the six months of treatment (see De Koning et al., Peptides, Vol. 8, No. 3, pp. 415–22 (1987) for a description of the experimental method). […] This was apparent starting at 8 weeks of treatment and persisted to a similar degree through to the six month termination point of the study."}, "STZ-diabetic rats [2]": {"test_system": "STZ-diabetic rats", "assay": "Diabetic neuropathy in STZ model (nerve conduction velocity)", "format": "in vivo, rat", "settings": "10 mg/kg daily, 4, 8 and 12 weeks", "protocol": "Motor and sensory nerve conduction velocity was also measured in STZ-diabetic animals after 4, 8 and 12 weeks of treatment (see De Koning et al., supra, for a description of the experimental method). Briefly, stimulating needle electrodes were inserted close to the sciatic and tibial nerves with recording electrodes being placed subcutaneously over the distal foot muscles, in anesthetized rats."}, "transgenic G1H mice": {"test_system": "transgenic G1H mice", "assay": "Effect on onset of ALS in transgenic FALS mice", "format": "in vivo, mouse", "protocol": "The effect of NAALADase inhibitors on the onset of ALS was tested using the transgenic mice model of familial Amyotrophic Lateral Sclerosis (FALS), which is detailed in Gurney, M., Annals of Neurology (1996) 39:147–157, and otherwise well known in the art. One month old transgenic G1H mice were treated with daily intraperitoneal injections of a vehicle (50 mM HEPES-buffered saline) or a NAALADase inhibitor (50 mg/kg Compound A). Clinical symptoms of the mice were monitored daily. The onset of clinical disease was scored by examining each mouse for its shaking of limbs when suspended in the air by its tail, cross spread of spinal reflexes, hindlimb paralysis, body weight and wheel running activity."}, "[3]": {"test_system": "Brown Norway rats with unilateral elevation of intraocular pressure", "assay": "Experimental rat glaucoma (IOP elevation), optic nerve fiber counting", "format": "in vivo", "settings": "8 week group, 10 mg/kg i.p. daily", "protocol": "(§1) All experiments complied with the Association for Research in Vision and Ophthalmology Statement for the Use of Animals in Ophthalmic and Vision Research. 82 male Brown Norway rats (Rattus norvegicus), each weighing approximately 250 gm, were treated using procedures approved by the Animal Care Committee of the Johns Hopkins University School of Medicine. The rats were housed with a 12 hour light/12 hour dark cycle and fed ad libitum.\nEXPERIMENTAL GLAUCOMA: Unilateral elevation of intraocular pressure (“IOP”) was produced in 56 rats by microinjection of hypertonic saline into episcleral veins, following procedures described in Morrison, J. et al., IOVS (March 1998) 39:526–531. Beginning on the day of IOP elevation, the rats were treated daily with intraperitoneal injections of either a vehicle (23 rats with 50 mM HEPES-buffered saline) or a NAALADase inhibitor (11 rats with 10 mg/kg of Compound A and 22 rats with 10 mg/kg of Compound B). 11 saline treated rats, 11 Compound A treated rats and 11 Compound B treated rats were sacrificed at 8 weeks, and the remaining rats at 12 weeks, after initial IOP elevation.\n(§2) OPTIC NERVE COUNTING: The rats were sacrificed by exsanguination under deep pentobarbital anesthesia. They were perfused through the heart with 2% paraformaldehyde/2% glutaraldehyde in 0.1 M phosphate buffer, pH 7.2, and the eyes with attached optic nerves were removed. A cross-section of the optic nerve from both experimental (glaucoma or transection) and control eyes was removed 1.5 mm posterior to the globe, 1 mm in thickness, and post-fixed in 2% osmium tetroxide in buffer. These were processed into epoxy resin, sectioned at 1 micron and stained with toluidine blue.\n(§3) The area of the optic nerve cross-section was measured by outlining its outer border at 10× magnification on an image analysis system (Universal Imaging Corp., Westchester, Pa.) with Synsys digital camera and Metamorph software. Three area measurements were taken and the mean value was determined. To measure the density and fiber diameter distributions, images were captured with a 100× phase contrast objective from 10 different areas of each nerve. These were edited to eliminate non-neural objects and the size of each axon internal to the myelin sheath (its minimum diameter) and the density of axons/square mm were calculated for each image and nerve. The mean density was multiplied by total nerve area to yield fiber number for each nerve. The total fiber number in glaucoma or transection nerves was compared to the normal, fellow eye of each rat to yield a percent loss value. The number of axons counted among the 10 images was an approximately 20% sample of the 80–90,000 axons in normal rat nerves. The person measuring axon number was masked to the protocol conducted on the nerves."}, "[4]": {"test_system": "Brown Norway rats with unilateral optic nerve transection", "assay": "Optic nerve transection, optic nerve fiber counting", "format": "in vivo, Rattus norvegicus", "settings": "for FIBER NUMBER ± SEM / PERCENT DIFFERENCE ± SEM in fiber number between transected and normal eye: 10 mg/kg i.p. daily", "protocol": "as §1\nOPTIC NERVE TRANSECTION: The optic nerve was transected unilaterally in 26 rats under intraperitoneal pentobarbital anesthesia. The conjunctiva was opened with scissors and the optic nerve exposed by traction on extraocular muscles. The transection was performed with microscissors 5 mm posterior to the globe, with specific attention to avoidance of injury to major ocular blood vessels. Immediately after transection, the retina was examined ophthalmoscopically to assure that the retinal arterial blood supply was not disrupted. The conjunctiva was closed with absorbable suture and the eye dressed with antibiotic ointment. Beginning on the day of transection, the rats were treated daily with intraperitoneal injections of either a vehicle (9 rats with 50 mM HEPES-buffered saline) or a NAALADase inhibitor (8 rats with 10 mg/kg of Compound A and 9 rats with 10 mg/kg of Compound B). 5 saline treated rats, 3 Compound A treated rats and 4 Compound B treated rats were sacrificed at 2 weeks, and the remaining rats at 4 weeks, after transection.\nas §2, §3"}, "ischemic cell cultures": {"test_system": "ischemic cell cultures", "assay": "Effect of NAALADase inhibition on TGF-β in in vitro ischemia model", "format": "cell-based", "protocol": "A NAALADase inhibitor, Compound C, was added to ischemia cell cultures to determine its effect on TGF-β levels during stroke.\nTGF-β neutralizing antibodies were then added to the ischemic cell cultures."}, "[5]": {"test_system": "rats subjected to middle cerebral artery occlusion", "assay": "Effect of NAALADase inhibition on TGF-β in in vivo ischemia model (MCAO)", "parameters": "species or system rat", "description": "The effect of TGF-β neutralizing antibodies on the neuroprotective effect of Compound C was also studied in rats following MCAO."}, "[6]": {"test_system": "chronic constrictive injury-induced rats", "assay": "Neuropathic pain in chronic constriction injury (CCI) model", "format": "in vivo, rat", "settings": "50 mg/kg i.p. daily from 10 days post surgery, significant from 11 days of treatment", "protocol": "Sciatic nerve ligation, consisting of 4 ligatures tied loosely around the sciatic nerve at 1 mm intervals proximal to the nerve trifurcation, was performed on rats. […] The rats were habituated to a Hargreaves apparatus. An infrared heat source was directed onto the dorsal surface of each rat's hindpaws and the time taken for the rat to withdraw its paws was noted. The difference in scores between the latency of the response for the paw on the operated side versus the paw on the unoperated control side was determined.\nThe rats received either Compound C (50 mg/kg i.p. daily) or a vehicle starting 10 days post surgery. […] Normal (unoperated) rats had approximately equal latencies for both paws. This effect was significant starting at 11 days of drug treatment and persisted through to the end of the study (for 21 days of daily dosing)."}, "NAALADase": {"test_system": "NAALADase", "settings": "read-out: Km of NAALADase for NAAG; cited from earlier work"}, "[7]": {"settings": "2 weeks survival after transection"}, "[8]": {"settings": "4 weeks survival after transection"}},
  "note": "Where a SMILES comes first, the peptide text is derived from it.",
  "data": [
    {"smiles": "O=C(O)CCC(CP(=O)(O)Cc1c(F)c(F)c(F)c(F)c1F)C(=O)O", "note": "(centres unmarked) [Compound A]", "values": [
      {"measurement": "hyperalgesic response (withdrawal latency difference score)", "setting": "STZ-diabetic rats [1]", "result": "completely reversed"},
      {"measurement": "nerve conduction velocity deficits versus diabetic vehicle controls", "setting": "BB/W diabetic rats; 10 mg/kg daily, from 8 weeks to six months", "result": "significantly less severe nerve conduction deficits"},
      {"measurement": "withdrawal latency versus diabetic vehicle-treated rats", "setting": "BB/W diabetic rats; 10 mg/kg i.p. daily, from 4 weeks through six months of treatment", "result": "longer withdrawal latencies"},
      {"measurement": "motor and sensory nerve conduction velocities", "setting": "STZ-diabetic rats [2]", "result": "tended to improve (increase)"},
      {"measurement": "DIFFERENCE in disease onset, treated versus vehicle", "setting": "transgenic G1H mice; Study 1", "result": 32},
      {"measurement": "DISEASE ONSET FOR COMPOUND A TREATED MICE", "setting": "transgenic G1H mice; Study 1, 50 mg/kg i.p. daily", "result": 221, "unit": "days"},
      {"measurement": "DIFFERENCE in disease onset, treated versus vehicle", "setting": "transgenic G1H mice; Study 2", "result": 25},
      {"measurement": "DISEASE ONSET FOR COMPOUND A TREATED MICE", "setting": "transgenic G1H mice; Study 2, 50 mg/kg i.p. daily", "result": 166, "unit": "days"},
      {"measurement": "FIBER NUMBER ± SEM", "setting": "[3]", "result": "79156 ± 2436"},
      {"measurement": "PERCENT DIFFERENCE ± SEM in fiber number between glaucoma and normal eye", "setting": "[3]; positive = fewer fibers in glaucoma eye", "result": "−1.82 ± 2.92", "unit": "%"},
      {"measurement": "remaining axons relative to saline-treated rats", "setting": "[4]; 2 weeks after transection", "result": 3, "unit": "times"},
      {"measurement": "FIBER NUMBER ± SEM", "setting": "[4]; [7]", "result": "26,426 ± 13,293"},
      {"measurement": "PERCENT DIFFERENCE ± SEM in fiber number between transected and normal eye", "setting": "[4]; [7]", "result": "65.3 ± 17.8", "unit": "%"},
      {"measurement": "FIBER NUMBER ± SEM", "setting": "[4]; [8]", "result": "13,599 ± 3,519"},
      {"measurement": "PERCENT DIFFERENCE ± SEM in fiber number between transected and normal eye", "setting": "[4]; [8]", "result": "82.4 ± 4.0", "unit": "%"}
    ]},
    {"smiles": "O=C(O)CCC(CP(=O)(O)O)C(=O)O", "note": "(centres unmarked) [Compound C, 2-(phosphonomethyl)-pentanedioic acid]", "values": [
      {"measurement": "TGF-β1 concentrations in ischemic cell cultures", "setting": "ischemic cell cultures; FIG. 1", "result": "increased concentrations"},
      {"measurement": "TGF-β2 concentrations in ischemic cell cultures", "setting": "ischemic cell cultures; FIG. 2", "result": "increased concentrations"},
      {"measurement": "neuroprotective effect after addition of TGF-β neutralizing antibodies", "setting": "ischemic cell cultures; in vitro ischemia model, FIG. 3", "result": "blocked"},
      {"measurement": "neuroprotective effect after addition of FGF antibody", "setting": "ischemic cell cultures; in vitro ischemia model, FIG. 4", "result": "did not block"},
      {"measurement": "neuroprotective effect in vivo with TGF-β neutralizing antibodies", "setting": "[5]; FIG. 5", "result": "significantly attenuated"},
      {"measurement": "TGF-β1 levels during occlusion and reperfusion", "setting": "[5]; microdialysis, FIG. 6", "result": "significant rise"},
      {"measurement": "difference scores between the two paws (withdrawal latency)", "setting": "[6]", "result": "dramatically normalized"}
    ]},
    {"smiles": "CC(=O)N[C@@H](CC(=O)O)C(=O)N[C@@H](CCC(=O)O)C(=O)O", "note": "[NAAG, N-acetyl-aspartyl-glutamate] (Ac-Asp-Glu-OH)", "values": [
      {"measurement": "Km", "setting": "NAALADase", "result": 0.54, "unit": "µM"}
    ]}
  ]
}
